# Assays:
# Type in all cases: functional
# NCI-H226 = test: Growth inhibition of human NCI-H226 cells after 72 hrs by MTT assay; settings: NCI-H226, 72 h
# NCI-H460 = test: Growth inhibition of human NCI-H460 cells after 72 hrs by MTT assay; settings: NCI-H460, 72 h
# UACC-62 = test: Growth inhibition of human UACC-62 cells after 72 hrs by MTT assay; settings: UACC-62, 72 h
# T47D = test: Growth inhibition of human T47D cells after 72 hrs by MTT assay
# CCRF-CEM = test: Growth inhibition of human CCRF-CEM cells after 72 hrs by MTT assay
# OVCAR-3 = test: Growth inhibition of human OVCAR-3 cells after 72 hrs by MTT assay; settings: OVCAR-3, 72 h
# KM12 = test: Growth inhibition of human KM12 cells after 72 hrs by MTT assay; settings: KM12, 72 h
# [1] = Growth inhibition of human SK MEL28 cells after 72 hrs by MTT assay; settings: SK-MEL-28, 72 h
# UO-31 = test: Growth inhibition of human UO-31 cells after 72 hrs by MTT assay; settings: UO-31, 72 h
# K562 = test: Growth inhibition of human K-562 cells after 72 hrs by MTT assay; settings: K562, 72 h, read-out: LC50 (the source's name)
# SNB-75 = test: Growth inhibition of human SNB-75 cells after 72 hrs by MTT assay; settings: SNB-75, 72 h
# LOX IMVI = test: Growth inhibition of human LOX IMVI cells after 72 hrs by MTT assay
# COLO 205 = test: Growth inhibition of human COLO205 cells after 72 hrs by MTT assay; settings: COLO 205, 72 h
# Malme-3M = test: Growth inhibition of human MALME-3M cells after 72 hrs by MTT assay
# HOP-62 = test: Growth inhibition of human HOP-62 cells after 72 hrs by MTT assay; settings: HOP-62, 72 h
# MDA-N = test: Growth inhibition of human MDA-N cells after 72 hrs by MTT assay
# SK-MEL-5 = test: Growth inhibition of human SK-MEL-5 cells after 72 hrs by MTT assay; settings: SK-MEL-5, 72 h
# SF-268 = test: Growth inhibition of human SF-268 cells after 72 hrs by MTT assay; settings: SF-268, 72 h
# A549 = test: Growth inhibition of human A549 cells after 72 hrs by MTT assay; settings: A549, 72 h
# OVCAR-8 = test: Growth inhibition of human OVCAR8 cells after 72 hrs by MTT assay; settings: OVCAR-8, 72 h
# EKVX = test: Growth inhibition of human EKVX cells after 72 hrs by MTT assay
# SK-OV-3 = test: Growth inhibition of human SKOV3 cells after 72 hrs by MTT assay; settings: SK-OV-3, 72 h
# NCI-H23 = test: Growth inhibition of human NCI-H23 cells after 72 hrs by MTT assay; settings: NCI-H23, 72 h
# MDA-MB-231 = test: Growth inhibition of human MDA-MB-231cells after 72 hrs by MTT assay; settings: MDA-MB-231, 72 h
# HCC 2998 = test: Growth inhibition of human HCC2998 cells after 72 hrs by MTT assay; settings: HCC 2998, 72 h
# NCI/ADR-RES = test: Growth inhibition of human NCI/ADR-RES cells after 72 hrs by MTT assay
# M14 = test: Growth inhibition of human M14 cells after 72 hrs by MTT assay; settings: M14, 72 h
# HL-60(TB) = test: Growth inhibition of human HL-60(TB) cells after 72 hrs by MTT assay; settings: HL-60, 72 h
# SNB-19 = test: Growth inhibition of human SNB-19 cells after 72 hrs by MTT assay; settings: SNB-19, 72 h
# SF-295 = test: Growth inhibition of human SF-295 cells after 72 hrs by MTT assay; settings: SF-295, 72 h
# HCT-15 = test: Growth inhibition of human HCT-15 cells after 72 hrs by MTT assay; settings: HCT-15, 72 h
# IGROV-1 = test: Growth inhibition of human IGROV1 cells after 72 hrs by MTT assay; settings: IGROV-1, 72 h
# PC-3 = test: Growth inhibition of human PC-3 cells after 72 hrs by MTT assay; settings: PC-3, 72 h
# MOLT-4 = test: Growth inhibition of human MOLT-4 cells after 72 hrs by MTT assay; settings: MOLT-4, 72 h
# [2] = read-out: LC50 (the source's name)
smiles,measurement,setting,value
C[C@@H]1CC[C@@]2(OC1)O[C@H]1C[C@H]3[C@@H]4CC[C@H]5C[C@@H](O[C@@H]6O[C@H](CO)[C@H](O[C@@H]7O[C@H](CO)[C@@H](O)[C@H](O[C@@H]8OC[C@@H](O)[C@H](O)[C@H]8O)[C@H]7O[C@@H]7O[C@H](CO)[C@@H](O)[C@H](O)[C@H]7O)[C@H](O)[C@H]6O)[C@H](O)C[C@]5(C)[C@H]4CC[C@]3(C)[C@H]1[C@@H]2C,GI50,NCI-H226,15 µM
same,TGI,NCI-H226,34 µM
same,CC50,NCI-H226; [2],76 µM
same,GI50,NCI-H460,1.3 µM
same,TGI,NCI-H460,4.2 µM
same,CC50,NCI-H460; [2],16 µM
same,GI50,UACC-62,17 µM
same,TGI,UACC-62,42 µM
same,CC50,UACC-62; [2],< 100 µM
same,GI50,T47D,5.4 µM
same,TGI,T47D,28 µM
same,CC50,T47D; [2],< 100 µM
same,GI50,CCRF-CEM,0.25 µM
same,TGI,CCRF-CEM,0.55 µM
same,CC50,CCRF-CEM; [2],2 µM
same,GI50,OVCAR-3,2.6 µM
same,TGI,OVCAR-3,9.1 µM
same,CC50,OVCAR-3; [2],35 µM
same,GI50,KM12,8.9 µM
same,TGI,KM12,23 µM
same,CC50,KM12; [2],55 µM
same,GI50,[1],15 µM
same,TGI,[1],33 µM
same,CC50,[1]; [2],71 µM
same,GI50,UO-31,2.4 µM
same,TGI,UO-31,12 µM
same,CC50,UO-31; [2],50 µM
same,CC50,K562,< 100 µM
same,GI50,SNB-75,14 µM
same,TGI,SNB-75,28 µM
same,CC50,SNB-75; [2],59 µM
same,GI50,LOX IMVI,1.4 µM
same,TGI,LOX IMVI,7.9 µM
same,GI50,COLO 205,1.4 µM
same,TGI,COLO 205,32 µM
same,CC50,COLO 205; [2],< 100 µM
same,GI50,Malme-3M,19 µM
same,TGI,Malme-3M,35 µM
same,CC50,Malme-3M; [2],69 µM
same,GI50,HOP-62,1.2 µM
same,TGI,HOP-62,2.8 µM
same,CC50,HOP-62; [2],6.2 µM
same,GI50,MDA-N,11 µM
same,TGI,MDA-N,28 µM
same,CC50,MDA-N; [2],74 µM
same,GI50,SK-MEL-5,4.1 µM
same,TGI,SK-MEL-5,40 µM
same,CC50,SK-MEL-5; [2],< 100 µM
same,GI50,SF-268,13 µM
same,TGI,SF-268,28 µM
same,CC50,SF-268; [2],59 µM
same,GI50,A549,0.35 µM
same,CC50,A549; [2],< 100 µM
same,GI50,OVCAR-8,2.5 µM
same,TGI,OVCAR-8,6.3 µM
same,CC50,OVCAR-8; [2],47 µM
same,GI50,EKVX,11 µM
same,TGI,EKVX,27 µM
same,CC50,EKVX; [2],63 µM
same,GI50,SK-OV-3,13 µM
same,TGI,SK-OV-3,41 µM
same,CC50,SK-OV-3; [2],< 100 µM
same,GI50,NCI-H23,2 µM
same,TGI,NCI-H23,8.7 µM
same,CC50,NCI-H23; [2],36 µM
same,GI50,MDA-MB-231,1.8 µM
same,TGI,MDA-MB-231,13 µM
same,CC50,MDA-MB-231; [2],87 µM
same,GI50,HCC 2998,12 µM
same,TGI,HCC 2998,25 µM
same,CC50,HCC 2998; [2],50 µM
same,GI50,NCI/ADR-RES,2.8 µM
same,TGI,NCI/ADR-RES,12 µM
same,CC50,NCI/ADR-RES; [2],46 µM
same,GI50,M14,16 µM
same,TGI,M14,35 µM
same,CC50,M14; [2],74 µM
same,GI50,HL-60(TB),4.7 µM
same,TGI,HL-60(TB),48 µM
same,CC50,HL-60(TB); [2],< 100 µM
same,GI50,SNB-19,12 µM
same,TGI,SNB-19,27 µM
same,CC50,SNB-19; [2],60 µM
same,GI50,SF-295,12 µM
same,TGI,SF-295,49 µM
same,CC50,SF-295; [2],< 100 µM
same,GI50,HCT-15,1.4 µM
same,TGI,HCT-15,11 µM
same,CC50,HCT-15; [2],46 µM
same,GI50,IGROV-1,3.7 µM
same,TGI,IGROV-1,17 µM
same,CC50,IGROV-1; [2],48 µM
same,GI50,PC-3,3.1 µM
same,TGI,PC-3,15 µM
same,CC50,PC-3; [2],41 µM
same,GI50,MOLT-4,41 µM
same,TGI,MOLT-4,97 µM
same,CC50,MOLT-4; [2],< 100 µM
